Values after ≈ are worked out from the molar mass of the structure shown. Read-outs that look alike come from different tables or passages of the source.
Experiments:
Pdist-1 = experiment: Antibiotic susceptibility test, broth dilution MIC; type: cell-based, Parabacteroides distasonis; conditions: for MIC: Parabacteroides distasonis, read-out: MIC against Pdist-1
Protocol: (§1) According to the requirements for antibiotic susceptibility tests of anaerobic bacteria in “Technical specification on antimicrobial susceptibility tests” (Standard No. WS/T 639-2018) of the People's Republic of China Health Industry Standard, the susceptibility of the strains to antibiotics was determined by a broth dilution method, and the MIC values were recorded.
(§2) 0.1 mL of the prepared 5 bacterial suspensions were sequentially pipetted into 96-well plates containing equal volumes of prepared antibacterial drugs, such that the final concentration of the inoculated bacteria was 5×10^5 CFU/mL, and the drug concentrations were 256 μg/mL, 128 μg/mL, 64 μg/mL, 32 μg/mL, 16 μg/mL, 8 μg/mL, 4 μg/mL, 2 μg/mL, 1 μg/mL, 0.5 μg/mL, 0.25 μg/mL, and 0.125 μg/mL, respectively. Incubation: The above 96-well plates were anaerobically incubated in an incubator at 37° C. for 46-48 h.

Lferm-1 = experiment: Antibiotic susceptibility test, broth dilution MIC; type: cell-based, Limosilactobacillus fermentum; conditions: for MIC: Limosilactobacillus fermentum, read-out: MIC against Lferm-1
Protocol: as §1, §2

Eaviu-1 = experiment: Antibiotic susceptibility test, broth dilution MIC; type: cell-based, Enterococcus avium; conditions: for MIC: Enterococcus avium, read-out: MIC against Eaviu-1
Protocol: as §1, §2

Lsali-1 = experiment: Antibiotic susceptibility test, broth dilution MIC; type: cell-based, Lactobacillus salivarius; conditions: anaerobic, 37° C., 46-48 h; for MIC: Ligilactobacillus salivarius, read-out: MIC against Lsali-1
Protocol: as §1, §2

Bbifi-1 = experiment: Antibiotic susceptibility test, broth dilution MIC; type: cell-based, Bifidobacterium bifidum; conditions: for MIC: Bifidobacterium bifidum, read-out: MIC against Bbifi-1
Protocol: as §1, §2

colon injury = experiment: Colon histopathology (HE staining) in mice with 5-FU-induced diarrhea; type: in vivo; conditions: panels 1A and 2A in FIG. 13
Protocol: After the animal experiment, the middle colon of the mice was collected and fixed in 4% paraformaldehyde for 24 h. The fixed colon tissues were sequentially dehydrated, transparentized, waxed, and embedded. The embedded paraffin blocks of colon tissues were sectioned at a thickness of 5 μm, followed by spreading and baking, and the dried sections were subjected to conventional HE staining. The pathological changes were observed under an optical microscope. Pathological scoring was performed according to Table 6 below, and the total pathological scores (the sum of the scores of all indices) were calculated.

[1] = broth dilution, anaerobic, 37° C., 46-48 h

Compound | MIC (Pdist-1; [1]) | MIC (Lferm-1; [1]) | MIC (Eaviu-1; [1]) | MIC (Lsali-1) | MIC (Bbifi-1; [1]) | also measured
CC1(C)S[C@@H]2[C@H](NC(=O)[C@H](N)c3ccccc3)C(=O)N2[C@H]1C(=O)O [Ampicillin] | 8 µg/mL (≈ 22.9 µM) | 0.5 µg/mL (≈ 1.43 µM) | 4 µg/mL (≈ 11.4 µM) | 4 µg/mL (≈ 11.4 µM) | 0.25 µg/mL (≈ 0.715 µM) | 
CO/N=C(\C(=O)N[C@@H]1C(=O)N2C(C(=O)O)=C(CSc3nc(=O)c(=O)[nH]n3C)CS[C@H]12)c1csc(N)n1 [Ceftriaxone] | 16 µg/mL (≈ 28.9 µM) |  |  |  |  | 
O=C(N[C@H](CO)[C@H](O)c1ccc([N+](=O)[O-])cc1)C(Cl)Cl [Chloramphenicol] |  | 0.125 µg/mL (≈ 0.387 µM) | 128 µg/mL (≈ 396 µM) | 256 µg/mL (≈ 792 µM) | 8 µg/mL (≈ 24.8 µM) | 
CCC[C@@H]1C[C@@H](C(=O)N[C@@H]([C@H]2O[C@H](SC)[C@H](O)[C@@H](O)[C@H]2O)[C@H](C)Cl)N(C)C1 [Clindamycin] | 16 µg/mL (≈ 37.6 µM) | < 0.125 µg/mL | 4 µg/mL (≈ 9.41 µM) | 8 µg/mL (≈ 18.8 µM) | 1 µg/mL (≈ 2.35 µM) | 
CC[C@H]1OC(=O)[C@H](C)[C@@H](O[C@H]2C[C@@](C)(OC)[C@@H](O)[C@H](C)O2)[C@H](C)[C@@H](O[C@@H]2O[C@H](C)C[C@H](N(C)C)[C@H]2O)[C@](C)(O)C[C@@H](C)C(=O)[C@H](C)[C@@H](O)[C@]1(C)O [Erythromycin] | 32 µg/mL (≈ 43.6 µM) | < 0.125 µg/mL | 0.25 µg/mL (≈ 0.341 µM) | 0.125 µg/mL (≈ 0.17 µM) | 0.125 µg/mL (≈ 0.17 µM) | 
C[C@@H](O)[C@H]1C(=O)N2C(C(=O)O)=C(SCCN=CN)C[C@H]12 [Imipenem] | 16 µg/mL (≈ 53.4 µM) |  |  |  |  | 
NC[C@H]1O[C@H](O[C@H]2[C@H](O)[C@@H](O[C@H]3O[C@H](CO)[C@@H](O)[C@H](N)[C@H]3O)[C@H](N)C[C@@H]2N)[C@H](O)[C@@H](O)[C@@H]1O [Kanamycin] |  |  |  | 256 µg/mL (≈ 528 µM) |  | 
C[C@H]1COc2c(N3CCN(C)CC3)c(F)cc3c(=O)c(C(=O)O)cn1c23 [Levofloxacin] | 8 µg/mL (≈ 22.1 µM) |  |  |  |  | 
CO[C@H]1/C=C/O[C@@]2(C)Oc3c(C)c(O)c4c(O)c(c(/C=N/N5CCN(C)CC5)c(O)c4c3C2=O)NC(=O)/C(C)=C\C=C\[C@H](C)[C@H](O)[C@@H](C)[C@@H](O)[C@@H](C)[C@H](OC(C)=O)[C@@H]1C [Rifampicin] | < 0.125 µg/mL |  |  |  |  | 
[H]/N=C(/N)N[C@H]1[C@H](O)[C@@H](O)[C@H](O[C@@H]2O[C@@H](C)[C@](O)(C=O)[C@H]2O[C@@H]2O[C@@H](CO)[C@H](O)[C@@H](O)[C@@H]2NC)[C@@H](N/C(N)=N\[H])[C@@H]1O [Streptomycin] | < 0.125 µg/mL | 0.125 µg/mL (≈ 0.215 µM) | 128 µg/mL (≈ 220 µM) | 128 µg/mL (≈ 220 µM) | 128 µg/mL (≈ 220 µM) | 
CN(C)[C@@H]1C(O)=C(C(N)=O)C(=O)[C@@]2(O)C(O)=C3C(=O)c4c(O)cccc4[C@@](C)(O)[C@H]3C[C@@H]12 [Tetracycline] | 8 µg/mL (≈ 18 µM) | < 0.125 µg/mL | 0.5 µg/mL (≈ 1.13 µM) | 0.5 µg/mL (≈ 1.13 µM) | 0.125 µg/mL (≈ 0.281 µM) | 
CN[C@H](CC(C)C)C(=O)N[C@H]1C(=O)N[C@@H](CC(N)=O)C(=O)N[C@H]2C(=O)N[C@H]3C(=O)N[C@H](C(=O)N[C@H](C(=O)O)c4cc(O)cc(O)c4-c4cc3ccc4O)[C@H](O)c3ccc(c(Cl)c3)Oc3cc2cc(c3O[C@@H]2O[C@H](CO)[C@@H](O)[C@H](O)[C@H]2O[C@H]2C[C@](C)(N)[C@H](O)[C@H](C)O2)Oc2ccc(cc2Cl)[C@H]1O [Vancomycin] |  |  |  |  |  | MIC (Pdist-1): 8 µg/mL (≈ 5.52 µM); MIC (Lferm-1): 0.125 µg/mL (≈ 0.0863 µM); MIC (Eaviu-1): 2 µg/mL (≈ 1.38 µM); MIC (Bbifi-1): 1 µg/mL (≈ 0.69 µM)
CN(C)C(=O)C(CCN1CCC(O)(c2ccc(Cl)cc2)CC1)(c1ccccc1)c1ccccc1 [loperamide] |  |  |  |  |  | colon histopathological observation (HE staining) (colon injury): the colon structure was relatively intact, mucosal epithelial cells showed no significant necrosis, the number of goblet cells was significantly increased, and only a small amount of lymphocyte infiltration was observed in the lamina propria
Gentamicin |  |  |  |  |  | MIC against Pdist-1 (Pdist-1; [1]): <0.125 µg/mL; MIC against Lferm-1 (Lferm-1; [1]): 0.125 µg/mL; MIC against Eaviu-1 (Eaviu-1; [1]): 8 µg/mL; MIC against Lsali-1 (Lsali-1): 16 µg/mL; MIC against Bbifi-1 (Bbifi-1; [1]): 8 µg/mL
Penicillin |  |  |  |  |  | MIC against Pdist-1 (Pdist-1; [1]): 8 µg/mL

Source: patent US20250352587A1, “PROBIOTIC AND USE THEREOF” (priority 2023, published 2025)
